From patent publication US10428030B2, “Heterocycle derivatives and their use for the treatment of CNS disorders” (Trillium Therapeutics Inc., priority 2015, dated 2019)

Tests used:
[1] = tested on: Frings audiogenic seizure-susceptible mice; test: Frings audiogenic seizure (AGS)-susceptible mouse model; type: in vivo; conditions: Mus musculus, ip, sound-induced seizures
Text: Frings audiogenic seizure (AGS)-susceptible mice model examines the ability of an investigational drug to alter the onset and/or severity of seizures in a genetic mouse model of seizure susceptibility. Mice are genetically susceptible to sound-induced reflex seizures. Their seizure phenotype is characterized by wild running, loss of righting reflex, tonic flexion, and tonic extension in response to high-intensity sound stimulation. […] For example, the prototypical anticonvulsants phenytoin and ethosuximide display widely divergent clinical spectrums in humans, but are both active against sound-induced seizures in mice. Yet, the preclinical utility of this animal model rests in the useful information that can be obtained within a genetically susceptible model of seizures. Further, efficacy in this model provides proof of concept of brain bioavailability following systemic administration. The Frings AGS-susceptible mouse has a well-validated epilepsy phenotype that makes it particularly useful as a screening model. Beginning at about 21 days of age, Frings AGS-susceptible mice display prominent seizure activity in response to a high-intensity sound stimulus. They then remain susceptible to sound throughout their life. This is in stark contrast to the DBA2J AGS-susceptible mouse, which is the other common model of sound-induced seizures, as DBA2J mice are only susceptible to sound-induced seizures during a narrow developmental window (post-natal days 18-30). Thus, the Frings AGS-susceptible mouse seizures respond to a wide range of CNS-active drugs and display sound-induced seizures throughout their lifetime. In this regard, Frings AGS-susceptible mice are a highly useful screening model for the identification and characterization of compounds potentially effective against inherited epilepsy.
Male and female Frings audiogenic seizure-susceptible mice (18-25 g) are maintained in an in-house colony at the University of Utah. For each screening test, groups of 8 mice each are treated i.p. with varying doses of the investigational compound. At the time of peak effect as determined in the MES test (Test 4 in CF1 mice), individual mice are placed in a round plexiglass jar (diameter, 15 cm, height, 18 cm) and exposed to a sound stimulus of 110 decibels (11 KHz) delivered for 20 sec. Mice are observed for 25 sec for the presence or absence of hind limb tonic extension. Mice not displaying hind limb tonic extension are considered protected. The severity of a seizure may also be quantitated by assigning a numerical score to the observed response, e.g. no response—0; wild running for <10 sec—1; wild running for >10 sec—2; clonic seizure—3; forelimb extension/hind limb flexion—4; tonic seizure—5.

MTLE mice = test: Model of mesial temporal lobe epilepsy (mTLE), hippocampal paroxysmal discharges; type: in vivo, mouse; conditions: after 600 mg/kg, mice 4 weeks after intra-hippocampal KA
Text: The MTLE mouse model recapitulates many of the characteristics observed in human patients with temporal lobe epilepsy (TLE). The MTLE mouse is characterized by an initial neurotoxic event, a unilateral intrahippocampal injection of kainic acid (KA) into the dorsal hippocampus, which induces non-convulsive SE lasting several hours. This initial event is followed by a latent phase. Two to three weeks after KA injection, spontaneous recurrent hippocampal paroxysmal discharges (HPD) are only recorded in the epileptic hippocampus and remain stable and stereotyped for the whole life of the animal. These HPDs occur spontaneously about 30-60 times per hour when the animals are in a state of quiet wakefulness, generally last 15-20 sec and are associated with behavioral arrest and/or mild motor automatisms. Adult, male […] mice are stereotaxically injected with kainate (1 nmol in 100 nL) and implanted with 1 bipolar electrode in the dorsal hippocampus, and then allowed to recover for four weeks prior to evaluation in the screening protocol. Using a group size of 4 MTLE mice per dose of investigational compound, the compounds are typically first tested using the 6 Hz 44 mA ED50 value. […] For all acute studies, drug conditions are counter-balanced in MTLE mice over a two week period using a Latin square dosing protocol. Animals are used as their own controls. Digital EEG recordings are performed on freely moving animals for 20 minutes pre-injection (reference period) and 90 minutes post-injection. Data are analyzed for the period of 10 minutes before and 10 minutes after peak time of effect of the investigational compound, as determined from the 6 Hz 44 mA seizure test. The effects of the injected compound are compared to the reference period. Any accompanying effect on animal behavior is noted. Data are presented as the raw number of HPDs during the analyzed 20 min period (10 minutes before and 10 minutes after peak time of effect of compound) for each MTLE mouse, group mean number of HPDs, and effect on suppression as represented by percent of baseline HPD values.

mouse [2] = conditions: literature report; cited from earlier work
mouse [3] = conditions: literature report; cited from earlier work; remark: listed apart in the source
Male Sprague-Dawley rats = test: Maximal Electroshock Seizure (MES) rat model; type: in vivo; conditions: po, 4 hours
Procedure: (§1) Male, Sprague-Dawley rats and CD-1 mice were used for all studies. All animals were allowed ad-lib access to food and water except during experiment. Animals were housed within an animal vivarium maintained under a 12 h light:dark cycle (lights on: 07:00 h), and all experiments were conducted in the animals light phase. For all experiments, animals were habituated to the vivarium for a minimum of 72 h before experimentation. The experimental procedures used in the present investigation were conducted under the Association for Assessment and Accreditation of Laboratory Animal Care (AAALAC) and the Canadian Council on Animal Care (CCAC) guidelines.
(§2) All compounds were sonicated in 5% Tween 80® in saline or methylcellulose 0.5% (wgt/vol), using MC and sterile water and injected in a dose volume of 5 ml/kg or 10 ml/kg (rat), and 10 ml/kg (mouse). Drugs were administered by either the oral, intraperitoneal or intravenous route.
Male Sprague-Dawley rats of body weight 80-100 g were used for these studies. Each experiment was conducted over 3 consecutive days. On day 1 and 2, each rat received a single electrical stimulus (150 mA, 0.2 s duration, 60 Hz) via corneal electrodes moistened with saline (Shock stimulator type 221: Harvard apparatus). […] Typically this reflected approximately 70-90% of the initial group.
(§3) On the test day following a defined drug pretreatment period, rats received a maximal electroshock (150 mA, 0.2 s duration, 60 Hz) via corneal electrodes. Protection was defined as absence of a full tonic seizure within 10 s of stimulus delivery. Twenty minutes before the MES procedure, the animals were tested on a fixed speed rotorod (best score from 3 trials at 8 r.p.m, trial duration=60 s) to give an early assessment of drug effect on gross motor function.

CD-1 mice = test: s.c Pentylenetetrazole (PTZ) mouse model; type: in vivo; conditions: ip, PTZ 85 mg/kg s.c.
Procedure: as §1, §2
Sixty minutes following drug or vehicle pretreatment, all mice received a single subcutaneous injection of pentylenetetrazol (PTZ; 85 mg/kg). The animals were then transferred to single observation cages (dimension: 11.5″×7.5″×5″) and observed continuously for 30 min. […] In the event of a seizure, the onset latency from PTZ injection was recorded.

[4] = tested on: Frings audiogenic seizure-susceptible mice; conditions: general statement on prototypical anticonvulsants; cited from earlier work
[5] = Fixed speed rotorod, gross motor function (rat); conditions: male, Sprague-Dawley, in vivo, po
Procedure: as §3

NC(=O)OCC(COC(N)=O)c1ccccc1 [Felbamate]
ED50 [1]: 10 mg/kg

CCCC(CCC)C(=O)O [Valproic Acid]
ED50 [1]: 155 mg/kg

CC[C@@H](C(N)=O)N1CCCC1=O [Levetiracetam, reference compound]
Effect (% baseline) (MTLE mice; HPD): 68.7 % baseline
Mean HPD Counts (MTLE mice): 14.3

O=C1CCc2cc(OCc3ccccc3)ccc2N1
activity in mouse electroshock seizure (MES) model (mouse [2]): active
activity in pentylenetetrazole (PTZ) model (mouse [3]): active

O=C1COc2cc(OCc3ccccc3)ccc2N1 [Compound 1, 7-Benzyloxy-4H benzo[1,4]oxazin-3-one, reference compound]
ED50 (Male Sprague-Dawley rats): > 300 mg/kg
ED50 (CD-1 mice): > 300 mg/kg

CCC1(C)CC(=O)NC1=O (centres unmarked) [Ethosuximide]
activity against sound-induced seizures in mice [4]: active
ED50 [1]: 328 mg/kg

NCC1(CC(=O)O)CCCCC1 [Gabapentin]
ED50 [1]: 91.1 mg/kg

O=C1Nc2ccc(OCc3ccccc3)cc2OC1(F)F [I(D), 7-Benzyloxy-2,2-difluoro-4H-benzo[1,4]oxazin-3-one]
ED50 at 4 hours [5]: > 120 mg/kg
ED50 (Male Sprague-Dawley rats): 30.5 ± 0.8 mg/kg

O=C1NC(=O)C(c2ccccc2)(c2ccccc2)N1 [Phenytoin]
activity against sound-induced seizures in mice [4]: active
ED50 [1]: 3.8 mg/kg

NC(=O)N1c2ccccc2C=Cc2ccccc21 [Carbamazepine]
ED50 [1]: 11.2 mg/kg

Nc1nnc(-c2cccc(Cl)c2Cl)c(N)n1 [Lamotrigine]
ED50 [1]: 2.39 mg/kg
